This note sets out measurements from US6703388B2, “Nitrogen-containing tricyclic compounds and drugs containing the same” (Eisai Co., Ltd., priority 1996, dated 2004).

Each structure is given as a SMILES string. Where two headings read alike, the source gives them in different places. Some results are limits rather than exact numbers.

The subject of assay [1] is RBL-2H3 cells. The assay is described as follows: Inhibition of serotonin liberation from IgE-sensitized RBL-2H3 cells after antigen stimulation. The following applies: Rattus norvegicus; [3H]-serotonin release, IgE-sensitized RBL-2H3 cells, antigen stimulation; read-out: IC50 (μM) in serotonin liberation from RBL-2H3 cells. The format is cell-based, rat. From the text:
IgE-sensitized RBL-2H3 cells (i.e., a cell line originating in rat cells) release and produce not only histamine and serotonin but also cytokines such as TNF α and prostaglandins which are inflammatory mediators after stimulation with IgE sepecific antibody. In this experimental system, inhibitory effects on various mediators release were examined by using serotonin as an indication.
The cells were beforehand labeled with [^3H]-labeled serotonin and, at the same time, sensitized with the IgE antibody. After incubating with the compounds of the present invention, the cells were stimulated with the specific antigen. Then the inhibitory activity of each compound was calculated from the amount of the [^3H]-labeled serotonin thus liberated into the medium and the amount of [^3H]-labeled serotonin liberated when no compound of the present invention was added.

The subject of assay [2] is human basophils. The assay is described as follows: Inhibition of mediator (histamine, peptide leukotriene) liberation from human basophils stimulated with mite antigen. The class given is cell-based. Particulars: enzyme immunoassay. On the procedure: 6 ml of 6% dextran (for separating leukocytes, having a high molecular weight) was added to 20 ml of heparinized blood. After stirring well, the resulting mixture was allowed to stand at 37° C. for 30 min and thus erythrocytes were precipitated. The upper layer was taken up and phosphate buffered saline (D-PBS) was added thereto followed by centrifugation at 185 g for 8 minutes to give a crude leukocyte fraction. These cells were subjected to hypotonic hematolysis and then suspended in D-PBS(+) containing 0.1%-BSA. The resulting suspension was used in the subsequent experiment as the leukocyte fraction containing basophils. 0.4 ml of this cell suspension was preliminarily heated to 37° C. for 5 min and then 0.05 ml of a specimen solution was added thereto followed by a pretreatment at 37° C. for 15 min. Next, 0.05 ml of a mite antigen solution was added thereto to induce an antigen-antibody reaction. After 10 min, the reaction was ceased by ice-cooling. Then the reaction mixture was centrifuged at 185 g for 10 min and histamine and peptide leukotrienes in the resulting supernatant were determined by using enzyme immunoassay kits. From the results of the assay, the activities of the acridone derivatives of inhibiting the liberation of histamine and peptide leukotriene were determined.

[3] abbreviates: histamine, read-out: IC50 (μM) in mediator liberation from human basophils: histamine.
Setting [4] is: peptide leukotriene, read-out: IC50 (μM) in mediator liberation from human basophils: leukotriene.

`Cc1ccc2c(c1C)N(CCCNCCc1ccccc1)c1ccc(F)cc1[S+]2[O-]` (stereo not shown) [Example 86]: the IC50 in assay [1] was 1 µM; in assay [2] (setting [3]) it was 10 to 30 µM; in assay [2] (setting [4]), 10 µM. `Cc1ccc2c(c1C)N(CCNCc1c(O)cccc1O)c1ccccc1[S+]2[O-]` (stereo not shown) [Example 150]: the results for the IC50 in assay [1], in assay [2] (setting [3]) and in assay [2] (setting [4]) were 1 µM, 10 to 30 µM and 3 to 10 µM, respectively. For `Cc1ccc2c(c1C)N(CCN(C)Cc1ccccc1OCCO)c1ccccc1[S+]2[O-]` (stereo not shown) [Example 183], the IC50 in assay [1] is 3 µM; in assay [2] (setting [3]), 30 to 100 µM; in assay [2] (setting [4]) it was 10 to 30 µM. For `Cc1ccc2c(c1C)N(CCCN1CCc3ccccc3C1)c1ccccc1[S+]2[O-]` (stereo not shown) [Example 108] the same measures were 2 µM, 30 µM and 10 to 30 µM.

`Cc1ccc2c(c1C)N(CCCNCCOc1ccccc1)c1ccccc1[S+]2[O-]` (stereo not shown) [Example 113]: the IC50 in assay [1] was 3 µM; in assay [2] (setting [3]), 10 µM; in assay [2] (setting [4]), less than 10 µM. As for `Cc1ccc2c(c1C)N(CCNCc1cccc(C)c1O)c1ccccc1[S+]2[O-]` (stereo not shown) [Example 145], the values for the IC50 in assay [1], in assay [2] (setting [3]) and in assay [2] (setting [4]) were 6 µM, 10 to 30 µM and less than 10 µM, respectively.

With `Cc1ccc2c(c1C)N(CCCNC(C)c1ccccc1O)c1ccccc1[S+]2[O-]` (stereo not shown) [Example 102], the results for the IC50 in assay [1], in assay [2] (setting [3]) and in assay [2] (setting [4]) were 1 µM, 30 µM and 10 to 30 µM, respectively. For `Cc1ccc2c(c1C)N(CCCNCc1ccccc1)c1cc(C#N)ccc1[S+]2[O-]` (stereo not shown) [Example 90] the same measures were 3 µM, 30 to 100 µM and 10 to 30 µM. For `Cc1ccc2c(c1C)N(CCCN(C)Cc1cc(O)ccc1O)c1ccccc1[S+]2[O-]` (stereo not shown) [Example 171] the same measures were 0.8 µM, 3 to 10 µM and 3 to 10 µM. For the molecule `Cc1ccc2c(c1C)N(CCNCc1ncc[nH]1)c1ccccc1[S+]2[O-]` (stereo not shown) [Example 162], the IC50 was 1 µM in assay [1], 30 to 100 µM in assay [2] (setting [3]) and less than 10 µM in assay [2] (setting [4]). Consider `Cc1ccc2c(c1C)N(CCCNCc1ccc(O)c(C(=O)O)c1)c1ccccc1[S+]2[O-]` (stereo not shown) [Example 32], for which the values for the IC50 in assay [1], in assay [2] (setting [3]) and in assay [2] (setting [4]) were 0.5 µM, 30 to 100 µM and 10 to 30 µM, respectively. For `Cc1ccc2c(c1C)N(CCCN1CCN(Cc3ccccc3O)CC1)c1ccccc1[S+]2[O-]` (stereo not shown) [Example 114], the IC50 in assay [1] was 2 µM; in assay [2] (setting [3]), 30 to 100 µM; in assay [2] (setting [4]), 10 µM.

For `Cc1ccc2c(c1C)N(CCCN(C)Cc1ccccc1OCCO)c1ccccc1[S+]2[O-]` (stereo not shown) [Example 173], the IC50 in assay [1] was found to be 0.3 µM; in assay [2] (setting [3]) it was 30 µM; in assay [2] (setting [4]) it was 10 µM. With `COc1ccsc1CNCCCN1c2ccc(Cl)cc2[S+]([O-])c2ccc(C)c(C)c21` (stereo not shown) [Example 81], the IC50 is 1 µM in assay [1], 10 to 30 µM in assay [2] (setting [3]) and 3 to 10 µM in assay [2] (setting [4]). For `Cc1ccc2c(c1C)N(CCCNCc1cc(Cl)cc(Cl)c1O)c1ccccc1[S+]2[O-]` (stereo not shown) [Example 34] the same measures were 2 µM, 3 to 10 µM and 3 µM. With `Cc1ccc2c(c1C)N(CCCNCc1ccc(O)cc1)c1ccccc1[S+]2[O-]` (stereo not shown) [Example 25], the IC50 in assay [1] is 3 µM; in assay [2] (setting [3]), 30 µM; in assay [2] (setting [4]) it was 10 to 30 µM.

As to `COc1ccc(CN(C)CCCN2c3ccccc3[S+]([O-])c3ccc(C)c(C)c32)o1` (stereo not shown) [Example 176], the figures for the IC50 in assay [1], in assay [2] (setting [3]) and in assay [2] (setting [4]) were 2 µM, 30 to 100 µM and 10 to 30 µM, respectively.

`COCOc1ccccc1CNCCCN1c2ccccc2[S+]([O-])c2ccc(C)c(C)c21` (stereo not shown) [Example 44]: the IC50 is 1 µM in assay [1], 10 to 30 µM in assay [2] (setting [3]) and 10 µM in assay [2] (setting [4]). With `Cc1ccc2c(=NOCCC(=O)O)c3ccccc3n(CCCNCc3ccccc3O)c2c1C` [Example 247], the IC50 in assay [1] came to 10 µM. As for `Cc1ccc2c(c1C)N(CCCNCc1ccccc1)c1ccccc1N(C)C2=O` [Example 259], in assay [1], the IC50 stood at 4 µM. Take `Cc1ccc2c(c1C)N(CCCNCc1ccccc1Cl)c1ccccc1[S+]2[O-]` (stereo not shown) [Example 52]: in assay [1], the IC50 was 3 µM. With `Cc1ccc2c(c1C)N(CCCNCc1cccc(-c3nnn[nH]3)c1)c1ccccc1[S+]2[O-]` (stereo not shown) [Example 57], in assay [1], the IC50 is 2 µM. As to `Cc1ccc2c(c1C)N(CCCNCc1ccccc1)c1ccccc1C(=O)N2C` [Example 260], in assay [1], the IC50 was 6 µM. `CCCON=c1c2ccccc2n(CCCN)c2c(C)c(C)ccc12` [Example 211]: the IC50 in assay [1] is 10 µM. As to `Cc1ccc2c(c1C)N(CCCNCc1ccccc1)c1ccc(C#N)cc1[S+]2[O-]` (stereo not shown) [Example 88], in assay [1], the IC50 was found to be 1 µM.

As for `Cc1ccc2c(c1C)N(CCCNCc1ccccc1OCC(=O)O)c1ccccc1[S+]2[O-]` (stereo not shown) [Example 56], the IC50 in assay [1] came to 3 µM. Same read-out and setting: to `COc1ncc(CNCCCN2c3ccccc3[S+]([O-])c3ccc(C)c(C)c32)c(OC)n1` (stereo not shown) [Example 78] belongs 4 µM; to `Cc1ccc2c(c1C)N(Cc1ccc(CN3CCC(C(=O)O)CC3)cc1)c1ccccc1[S+]2[O-]` (stereo not shown) [Example 121], 1 µM. Turning to `Cc1ccc2c(=NOCC(=O)O)c3ccccc3n(CCCNCc3ccccc3)c2c1C` [Example 234], the IC50 in assay [1] was less than 3 µM. For the molecule `C#CCNCCCN1c2ccccc2[S+]([O-])c2ccc(C)c(C)c21` (stereo not shown) [Example 126], the IC50 in assay [1] amounted to 3 µM. As for `Cc1ccc2c(c1C)N(CCCN1CCN(C(C(=O)O)c3ccccc3)CC1)c1ccccc1[S+]2[O-]` (stereo not shown) [Example 111], the IC50 in assay [1] came to 2 µM. For the molecule `Cc1ccc2c(c1C)N(CCCN(C)Cc1ccccc1O)c1cc(Cl)ccc1[S+]2[O-]` (stereo not shown) [Example 186], the IC50 in assay [1] stood at 10 µM. Still for that read-out and setting: with `Cc1ccc2c(=NOCCCC(=O)N(C)C)c3ccccc3n(CCCN)c2c1C` [Example 222] the figure was 10 µM. Still for that read-out and setting: with `COc1cc2c(c(C)c1C)N(CCCNCc1ccccc1)c1ccccc1[S+]2[O-]` (stereo not shown) [Example 99] the figure was 5 µM; with `Cc1ccc2c(=NOCCCC(=O)O)c3ccccc3n(CCCNCc3ccccc3)c2c1C` [Example 242], 6 µM; with `Cc1ccc2c(=NOC(C)C)c3ccccc3n(CCCN)c2c1C` [Example 223], 10 µM.

As to `COc1cc(C(N)=O)sc1CNCCCN1c2ccccc2[S+]([O-])c2ccc(C)c(C)c21` (stereo not shown) [Example 79], the IC50 in assay [1] worked out at 2 µM. The same measure, in the same setting: with `Cc1ccc2c(c1C)N(CCCN)c1cc(Br)ccc1S2(=O)=O` [Example 197] the figure was 8 µM; with `Cc1ccc2c(c1C)N(CCCN)c1ccccc1N(C)C2=O` [Example 257], 12 µM. With `COc1ccsc1CNCCCN1c2ccccc2[S+]([O-])c2c(C)cc(C)c(C)c21` (stereo not shown) [Example 101], in assay [1], the IC50 worked out at 5 µM. Take `Cc1ccc2c(=NOCCc3ccccn3)c3ccccc3n(CCCNCc3ccccc3)c2c1C` [Example 241]: the IC50 in assay [1] is 4 µM. Consider `Cc1ccc2c(c1C)N(CCCNCc1ccccc1C(=O)O)c1ccccc1[S+]2[O-]` (stereo not shown) [Example 55], for which, in assay [1], the IC50 turned out to be 8 µM. Turning to `CCC(ON=c1c2ccccc2n(CCCNCc2ccccc2)c2c(C)c(C)ccc12)C(=O)O` (stereo not shown) [Example 237], the IC50 in assay [1] is 10 µM.

In the case of `Cc1ccc2c(c1C)N(CCCNc1nc[nH]n1)c1ccccc1[S+]2[O-]` (stereo not shown) [Example 118], the IC50 in assay [1] amounted to 10 µM.

In the case of `Cc1ccc2c(c1C)N(CCCNCc1nccs1)c1ccccc1[S+]2[O-]` (stereo not shown) [Example 120], in assay [1], the IC50 worked out at 3 µM.

`Cc1ccc2c(=NOCc3ccccn3)c3ccccc3n(CCCNCc3ccccc3)c2c1C` [Example 240]: in assay [1], the IC50 was found to be 5 µM. Regarding `Cc1ccc2c(c1C)N(CCCN(CC(=O)O)Cc1ccccc1)c1ccccc1S2` [Example 5], the IC50 in assay [1] was found to be 5 µM. Still for that read-out and setting: to `COc1ccsc1CNCCCN1c2ccc(C#N)cc2[S+]([O-])c2ccc(C)c(C)c21` (stereo not shown) [Example 89] belongs 2 µM. Same read-out and setting: with `Cc1ccc2c(=NOC(C)C(=O)O)c3ccccc3n(CCCN)c2c1C` (stereo not shown) [Example 217] the figure was 2 µM; with `C=C1c2ccccc2N(CCCNCc2ccccc2)c2c1ccc(C)c2C` [Example 206, 3,4-Dimethyl-9-methylene-10-(3-benzylaminopropyl)acridan], 15 µM. On to `Cc1ccc2c(c1C)N(CCCn1cnc(N)n1)c1ccccc1[S+]2[O-]` (stereo not shown) [Example 119], for which the IC50 in assay [1] came to 6 µM. For the molecule `Cc1ccc2c(c1C)N(CCCN1CCN(Cc3ccccc3)C(C(=O)O)C1)c1ccccc1[S+]2[O-]` (stereo not shown) [Example 110], the IC50 in assay [1] stood at 1 µM.

For `Cc1ccc2c(c1C)N(CCCNCc1ccccc1)c1cc(-c3nn[nH]n3)ccc1[S+]2[O-]` (stereo not shown) [Example 98], the IC50 in assay [1] turned out to be 0.5 µM. Still for that read-out and setting: with `Cc1ccc2c(c1C)N(CCNCc1ccc(Cl)c(O)c1Cl)c1ccccc1[S+]2[O-]` (stereo not shown) [Example 153] the figure was 6 µM. In the case of `Cc1ccc2c(c1C)N(CCCNCC1CC1)c1ccccc1[S+]2[O-]` (stereo not shown) [Example 43], the IC50 in assay [1] came to 4 µM.
